Publication PMC9841519, “Corrole Nanoparticles for Chemotherapy of Castration-Resistant Prostate Cancer and as Sonodynamic Agents for Pancreatic Cancer Treatment” (Journal of Medicinal Chemistry, 2022)

How the values were obtained:
DU-145 = experiment: MTT assay, antitumor activity (Figure 1 table); details: for IC50: read-out: IC50 (μM) DU-145
Protocol: (§1) Cell death was evaluated using a colorimetric [3-(4,5-dimethyl-thiazol-2-yl)-2,5-diphenyl-tetrazolium bromide] (MTT) assay. […] Cells intended for US exposure were plated separately. […] After this incubation period, purple formazan salt crystals were formed by a NADP/NADPH-dependent process, in metabolically active cells. […] The absorption of MTT was determined in a Tecan Sunrise Elisa-Reader (Switzerland) at 570/650 nm after automatic subtraction of background readings.

MDA-MB-231 = experiment: MTT assay, antitumor activity (Figure 1 table); details: for IC50: read-out: IC50 (μM) MDA-MB-231
Protocol: as §1

SK-MEL-28 = experiment: MTT assay, antitumor activity (Figure 1 table); details: for IC50: read-out: IC50 (μM) SK-MEL-28
Protocol: as §1

[1] = system: several human cancer cell lines; experiment: Screening of corrole derivatives and their NPs on several cancer cell lines; format: cell-based; details: not consistent upon repeated experiments for 2-Au
Protocol: Multiple corrole derivatives and their NPs were tested on several cancer cell lines. These include several metal chelated derivatives of 5,10,15-tris(pentafluorophenyl)corrole (2-H3) (Figure 1A); β-substituted (iodinated and brominated) corroles and several of its metal chelates (only 4-Au data are shown); different meso substituted corroles and their metal chelates (e.g., 5,15-di(pentafluorophenyl)-10-(imidazolyl)-corrole gallium(III), not presented); and the new synthetically available compound 5,10,15-tris(trifluoromethyl)corrole with different chelated metals (only the gallium(III) chelate 3-Ga is presented in Figure 1A). […] The best candidates from the high molecular weight list of corrole derivatives were the gold complexes 2-Au and 4-Au. […] Though there was an apparent effect on the cell cycle progression of the treated cells, there was no apparent cell death outcome accompanying the cell cycle arrest. Furthermore, the cell population within the culture wells appeared to be dividing freely and completely covering the wells’ surface (data not shown).

OVCAR-3 = experiment: MTT assay, antitumor activity (Figure 1 table)
Protocol: as §1

Salmonella strain TA98 = experiment: Ames mutagenicity test
Description: (§2) Briefly, the Ames test uses 5 bacterial strains (Salmonella and E. coli) that are exposed to a given compound with and without an enzymatic bioactivation system derived from rodent liver (S9). Each bacterial strain has a different loss of function mutation in a gene essential for the biosynthesis of a required amino acid, histidine in Salmonella or tryptophan in E. coli, such that they cannot grow and form colonies on agar plates lacking these amino acids.

Salmonella strain TA100 = experiment: Ames mutagenicity test; details: S9: Yes
Description: as §2

For Fc1c(F)c(F)c(C2=C3C=CC(=N3)C(c3c(F)c(F)c(F)c(F)c3F)=c3ccc4[n]3[Au]3[n]5c2ccc5-c2ccc([n]23)C=4c2c(F)c(F)c(F)c(F)c2F)c(F)c1F [2-Au], the IC50 (DU-145) was 0.005 to 4 µM, the IC50 (MDA-MB-231) was 0.01 to 1 µM and the IC50 (SK-MEL-28) was 0.006 to 5 µM.

For Fc1c(F)c(F)c(C2=C3C=CC(=N3)C(c3c(F)c(F)c(F)c(F)c3F)=c3ccc4[n]3[Au]3[n]5c2c(I)c(I)c5-c2c(I)c(I)c([n]23)C=4c2c(F)c(F)c(F)c(F)c2F)c(F)c1F [4-Au], the “IC50 values in several human cancer cell lines (in words)” value [1] was “submicromolar to single micromolar”, the IC50 (DU-145) was 0.07 to 1 µM and the IC50 (MDA-MB-231) was 1 to 10 µM. The IC50 (OVCAR-3; read-out: IC50 (μM) OVCAR-3) was 1 µM and the IC50 (SK-MEL-28) was 1 to 10 µM.

In the case of Nc1cccc2cc3ccccc3cc12 [aminoanthracene], the “AMES Result (Positive/Negative)” value (Salmonella strain TA98; S9: Yes) is reported as “Positive” and the “AMES Result (Positive/Negative)” value (Salmonella strain TA100) is reported as “Positive”.

For O=[N+]([O-])c1ccc2c(c1)Cc1ccccc1-2 [2-nitrofluorine], the “AMES Result (Positive/Negative)” value (Salmonella strain TA98; S9: No) was “Positive”.

With Fc1c(F)c(F)c(-c2c3nc(c(-c4c(F)c(F)c(F)c(F)c4F)c4ccc([nH]4)c4ccc([nH]4)c(-c4c(F)c(F)c(F)c(F)c4F)c4ccc2[nH]4)C=C3)c(F)c1F [2-H3, 5,10,15-tris(pentafluorophenyl)corrole] the “IC50 (μM) DU-145” value (DU-145) was “ambiguous”, the “IC50 (μM) MDA-MB-231” value (MDA-MB-231) was “ambiguous” and the “IC50 (μM) OVCAR-3” value (OVCAR-3) was “ambiguous”. The “IC50 (μM) SK-MEL-28” value (SK-MEL-28) was “ambiguous”.

Work on Fc1c(F)c(F)c(C2=C3C=CC(=N3)C(c3c(F)c(F)c(F)c(F)c3F)=c3ccc4[n]3[Mn]3[n]5c2ccc5-c2ccc([n]23)C=4c2c(F)c(F)c(F)c(F)c2F)c(F)c1F [2-Mn] yielded an IC50 (DU-145) of 10 µM, an IC50 (MDA-MB-231) of 4 µM and an IC50 (SK-MEL-28) of 5 µM.
